Data taken from article PMC8962522, “Direct interaction of TrkA/CD44v3 is essential for NGF-promoted aggressiveness of breast cancer cells” (Journal of Experimental & Clinical Cancer Research : CR, 2022).

Legend:
Type in all cases: cell-based
[1] = system: TrkA/CD44v3 complex in MDA-MB-231 cells; test: PLA TrkA/CD44v3 complex formation in MDA-MB-231 cells; settings: NGF 100 ng/ml; 30 fields per condition, three experiments
Experimental: Cells (10,000 cells per well) were grown on acid-washed eight-well glass slides (Thermo Scientific) in the appropriate medium supplemented with 10% FBS for 24 h. After NGF treatment, paraformaldehyde (PAF)-fixed cells were incubated with 4% bovine serum albumin (BSA) or 5% FBS (for 1 h at 20 °C), followed by overnight incubation with primary antibodies (rabbit anti-TrkA or rabbit anti-IgG + mouse anti-pan-CD44; mouse anti-CD44v3; mouse anti-CD44v6; mouse anti-IgG2a; mouse anti-IgG2b; or mouse anti-IgG1). PLA was performed following the manufacturer’s instructions in the assay kit (Duolink PLA; Sigma–Aldrich). To obtain the correct representation of the PLA signal for each condition, 30 fields per condition were observed using a fluorescence microscope (Eclipse TiU; Nikon, Japan). The PLA signals (red dots) were automatically quantified using ImageJ software (with an in-house-developed plug-in). After PLA, statistical analyses were performed using GraphPad Prism software to determine the mean dot intensity in the cells.
Fig. 3 CD44v3 mimetic peptide 4 blocks the TrkA-CD44 association in MDA-MB-231 breast cancer cells. TrkA/CD44v3 (A) and TrkA/CD44v6 (B) complex associations were detected by the proximity ligation assay (PLA) in MDA-MB-231 breast cancer cells. Effects of a scramble peptide (SP) (C), CD44v3 mimetic peptide 3 (P3) and 4 (P4) (D) on TrkA/CD44v3 complex formation induced by NGF. Quantification of the PLA results was performed by ImageJ software (30 randomly chosen fields per condition of three different experiments). Statistical analyses were performed using one-way ANOVA followed by Bonferroni’s posttest. The error bars represent the standard error of the mean (S.E.M.); * p < 0.05, ** p < 0.01, *** p < 0.001; ns, not significant

MDA-MB-231 cells [2] = test: Elongation factor (length-to-width ratio), MDA-MB-231; settings: MDA-MB-231, with NGF
Experimental: Therefore, in this study, we assessed TrkA binding to CD44v3 in MDA-MB-231 cells, which were used as TNBC model cells. First, PLA was performed using anti-CD44 variant 3- (Fig. 3A and Supplementary Fig. 7) or anti-CD44 variant 6-specific antibodies (Fig. 3B). […] Next, we tested the ability of CD44v3 mimetic peptides to block TrkA/CD44v3 complex formation in MDA-MB-231 cells (Fig. 3C-E). […] Therefore, we evaluated the physiological consequences of TrkA/CD44v3 complex dissociation induced by CD44v3 mimetic peptide 4 on MDA-MB-231 cell phenotypes (Fig. 4). We first examined the effect of mimetic peptide 4 on clonogenic cell growth. For this experiment, MDA-MB-231 cells were grown in the presence of 2% FBS for […] in the presence or absence of CD44v3 mimetic peptide 4 (Fig. 4A and B). […] We first determined the effect of CD44v3 on the length-to-width (l/w) ratio of the cells (elongation factor) (Fig. 4C-E). […]
Fig. 4 CD44v3 mimetic peptide 4 inhibits MDA-MB-231 breast cancer cell growth and migration/invasion. Clonogenic MDA-MB-231 cell growth was measured after 10 days in the presence of a scramble peptide (SP) or CD44v3 mimetic peptide (P4) (A, B). The elongation factor (length-to-width ratio) was assessed after 10 days in the presence or absence of NGF (C, D, E). […] Invasion through collagen 1 was measured by the Transwell assay 16 h after treatment (J, K). […]

MDA-MB-231 cells [3] = test: Transwell invasion assay through collagen I, MDA-MB-231; settings: peptide 50 ng/mL for 30 min, NGF in lower chamber, 24 h (legend: 16 h)
Experimental: Transwell invasion assays were performed to assess cancer cell invasion in a Transwell chamber containing a collagen I-coated membrane (12-wells with inserts and […] pore size membranes; Corning, Life Sciences). A total of 1 × 10^6 starved cells (0.1% in SVF medium) were plated in the top chamber and incubated for 10 min before treatment with a peptide (50 ng/mL for 30 min); NGF was added to the lower chamber. After 24 h, the cells were fixed with methanol for 10 min and stained with Hoechst 33258 (1 mg/mL) for 30 min, and the cells that invaded the lower surface through the pores of the inserts were automatically counted under an inverted microscope with ImageJ software (with an in-house-developed plug-in).
Fig. 4 CD44v3 mimetic peptide 4 inhibits MDA-MB-231 breast cancer cell growth and migration/invasion. Clonogenic MDA-MB-231 cell growth was measured after 10 days in the presence of a scramble peptide (SP) or CD44v3 mimetic peptide (P4) (A, B). The elongation factor (length-to-width ratio) was assessed after 10 days in the presence or absence of NGF (C, D, E). Migration assays were performed using Ibidi devices 24 h after treatment (H, I). Invasion through collagen 1 was measured by the Transwell assay 16 h after treatment (J, K). Statistical analyses were performed using one-way ANOVA followed by Bonferroni’s posttest. […]

Substance	effect on TrkA/CD44v3 complex formation (PLA) in MDA-MB-231 cells [1]	effect on length-to-width (l/w) ratio (elongation factor) (MDA-MB-231 cells [2])	effect on invasion of MDA-MB-231 cells (MDA-MB-231 cells [3])
IDDDEDFISST [Peptide 4, mimetic peptide 4 (…) corresponding to the C-terminal region of CD44v3]	could disrupt TrkA/CD44v3 complex formation in MDA-MB-231 cells	This effect of NGF was inhibited	a decrease in both basal levels and NGF-induced invasion was observed
NGF: recombinant human β-NGF (Alomone Labs, Israel)	induced TrkA/CD44v3 complex formation in MDA-MB-231 cells at the plasma membrane within 5 min to 30 min of administration	significant increase in the l/w ratio	more NGF-treated cells than untreated cells invaded the collagen substrate
